Data taken from the supplement of paper PMC10307832.

Tests used:
Assay in all cases: relative viability (nuclei count vs DMSO), 5 days (fraction); higher = more cells survive
Carboplatin + Linsitinib = compound: C1CC(C1)(C(=O)O)C(=O)O.[NH2-].[NH2-].[Pt+2] [Carboplatin] + C[C@]1(O)C[C@@H](c2nc(-c3ccc4ccc(-c5ccccc5)nc4c3)c3c(N)nccn32)C1 [Linsitinib] (partner 1 µM)
Method in brief: (§1)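 Five library-drug doses in √10 steps were combined with a fixed anchor-drug dose, or a single drug was given alone, by pin tool to lung cancer cell lines in 1536-well plates the day after seeding. Nuclei were stained and counted after 5 days. Relative viability is the nuclei count in treated wells over that in vehicle wells, taken as the median of duplicate plates.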

Carboplatin + Alpelisib = compound: C1CC(C1)(C(=O)O)C(=O)O.[NH2-].[NH2-].[Pt+2] [Carboplatin] + Cc1nc(NC(=O)N2CCC[C@H]2C(N)=O)sc1-c1ccnc(C(C)(C)C(F)(F)F)c1 [Alpelisib] (partner 2 µM)
Method in brief: as §1

GSK126 + Vorinostat = compound: CC[C@H](C)N1C=C(C2=C(C=C(C=C21)C3=CN=C(C=C3)N4CCNCC4)C(=O)NCC5=C(C=C(NC5=O)C)C)C [GSK126] + O=C(CCCCCCC(=O)Nc1ccccc1)NO [Vorinostat] (partner 1 µM)
Method in brief: as §1

Carboplatin + Foretinib = compound: C1CC(C1)(C(=O)O)C(=O)O.[NH2-].[NH2-].[Pt+2] [Carboplatin] + COc1cc2c(Oc3ccc(NC(=O)C4(C(=O)Nc5ccc(F)cc5)CC4)cc3F)ccnc2cc1OCCCN1CCOCC1 [Foretinib] (partner 0.25 µM)
Method in brief: as §1

Question: With UMC-11 as the cell line, how does the relative viability (Carboplatin + Linsitinib; first compound 0.08 µM) read?
Answer: The relative viability was 1.02.

Question: And the relative viability (Carboplatin + Linsitinib; first compound 0.253 µM)?
Answer: Its relative viability is 1.01.

Question: And the relative viability (Carboplatin + Linsitinib; first compound 0.8 µM)?
Answer: The relative viability was 0.928.

Question: What about the relative viability (Carboplatin + Linsitinib; first compound 2.53 µM) of the same cell line?
Answer: Its relative viability is 0.98.

Question: And the relative viability (Carboplatin + Linsitinib; first compound 8 µM)?
Answer: The relative viability was 0.837.

Question: What about the relative viability (Carboplatin + Alpelisib; first compound 0.08 µM) of the same cell line?
Answer: Its relative viability is 1.

Question: And the relative viability (Carboplatin + Alpelisib; first compound 0.253 µM)?
Answer: Its relative viability is 0.96.

Question: And the relative viability (Carboplatin + Alpelisib; first compound 0.8 µM)?
Answer: Its relative viability is 0.827.

Question: What about the relative viability (Carboplatin + Alpelisib; first compound 2.53 µM) of the same cell line?
Answer: The relative viability was 0.955.

Question: What about the relative viability (Carboplatin + Alpelisib; first compound 8 µM) of the same cell line?
Answer: Its relative viability is 0.588.

Question: And the relative viability (GSK126 + Vorinostat; first compound 0.08 µM)?
Answer: The relative viability was 0.409.

Question: And the relative viability (GSK126 + Vorinostat; first compound 0.253 µM)?
Answer: Its relative viability is 0.381.

Question: What about the relative viability (GSK126 + Vorinostat; first compound 0.8 µM) of the same cell line?
Answer: Its relative viability is 0.356.

Question: What about the relative viability (GSK126 + Vorinostat; first compound 2.53 µM) of the same cell line?
Answer: The relative viability was 0.459.

Question: What about the relative viability (GSK126 + Vorinostat; first compound 8 µM) of the same cell line?
Answer: Its relative viability is 0.341.

Question: What about the relative viability (Carboplatin + Foretinib; first compound 0.08 µM) of the same cell line?
Answer: The relative viability was 1.03.

Question: And the relative viability (Carboplatin + Foretinib; first compound 0.253 µM)?
Answer: The relative viability was 1.03.

Question: And the relative viability (Carboplatin + Foretinib; first compound 0.8 µM)?
Answer: Its relative viability is 1.06.

Question: What about the relative viability (Carboplatin + Foretinib; first compound 2.53 µM) of the same cell line?
Answer: The relative viability was 0.941.

Question: And the relative viability (Carboplatin + Foretinib; first compound 8 µM)?
Answer: Its relative viability is 0.718.
